Data reported in patent US12312328B2, “Pyrazoline dihydroquinolones, pharmaceutical compositions, and uses” (Emory University, priority 2013, dated 2025).
Where two headings read alike, the source gives them in different places. Each block holds one molecule with its values, some of them ahead of it.

Columns and labels:
[1] = biological target: T1, GluN2D-containing receptors (Rattus norvegicus, UniProt P35439+Q62645); assay: Two-electrode voltage-clamp inhibition of GluN2D-containing NMDA receptors in Xenopus laevis oocytes; assay type: cell-based; conditions: GluN2D-containing receptors
T1 construct: expressed in transfected cells; host or cells: Xenopus laevis oocytes
Method: (§1) IC50 values were obtained by fitting the Hill equation to the average composite concentration-effect curves.
(§2) Xenopus laevis oocytes were isolated and maintained as described in Hansen & Traynelis, J Neurosci 2011, 31, 3650-3661. Oocytes were placed in a perfusion chamber with recording solution comprised of (in mM) 90 NaCl, 1 KCl, 0.5 BaCl2, 0.005 EDTA and 10 HEPES, pH adjusted to 7.4 with NaOH at 23° C. The glass electrodes used had tip resistance of 0.5-2.0 MΩ and were filled with 0.3-3.0 M KCl. Compounds were made as 20 mM stock solutions in DMSO and diluted to final concentrations in recording solution (final DMSO was 0.1-0.05% vol/vol). The current recordings were performed using a Warner OC-725B or C amplifier at a holding potential of −40 mV.

[2] = biological target: T2, GluN2C-containing receptors (Rattus norvegicus, UniProt P35439+Q00961); assay: Two-electrode voltage-clamp inhibition of GluN2C-containing NMDA receptors in Xenopus laevis oocytes; assay type: cell-based
T2 construct: expressed in transfected cells; host or cells: Xenopus laevis oocytes
Method: as §1, §2

[3] = tested on: GluN2C- and GluN2D-containing NMDA receptors; assay: NMDA receptor inhibition and subunit selectivity, GluN2C/GluN2D not told apart; assay type: cell-based
Method: as §1, §2

[4] = biological target: T3, GluN2D-containing receptors (Rattus norvegicus, UniProt Q62645); assay: Two-electrode voltage-clamp inhibition of GluN2D-containing NMDA receptors in Xenopus laevis oocytes; assay type: cell-based
T3 construct: expressed in transfected cells; host or cells: Xenopus laevis oocytes
Method: as §1, §2

[5] = biological target: T4, GluN2C-containing receptors (Rattus norvegicus, UniProt Q00961); assay: Two-electrode voltage-clamp inhibition of GluN2C-containing NMDA receptors in Xenopus laevis oocytes; assay type: cell-based
T4 construct: expressed in transfected cells; host or cells: Xenopus laevis oocytes
Method: as §1, §2

Plasma stability, mouse = assay type: in vitro ADME; conditions: two-hour time-course
Method: (§3) Three analogs, (58) 997-33, (26)997-23 and (64) 997-57 were evaluated for plasma stability as well as aqueous solubility. […] The aqueous solubility of compounds (26)997-23 and (58) 997-33 was evaluated in oocyte recording buffer using nephelometry. […] In order to assess the potential BBB penetration, compounds (26)997-23 and (64)997-57 were selected for evaluation in the MDR1-MDCK permeability assay (FIG. 19). […] The same compounds were also evaluated for metabolic stability using human liver microsomes.

[6] = tested on: MDR1-MDCK cell monolayers; assay: MDR1-MDCK permeability assay; assay type: in vitro ADME; conditions: for BBB penetration classification: from Papp and efflux ratio in MDR1-MDCK
Method: The Papp and efflux ratio were calculated as described in the Methods. […] See Wang et al., International Journal of Pharmaceutics, 2005, 288, 349-359.
Cell monolayers were grown to confluence on collagen-coated, microporous, polycarbonate membranes in 12-well Costar Transwell® plates. The permeability assay buffer was Hanks Balanced Salt Solution containing 10 mM HEPES and 15 mM glucose at pH 7.4. The buffer in the receiver chamber also contained 1% bovine serum albumin. The dosing solution concentration in the assay buffer was 5 μM for each compound tested. The cell monolayers were dosed on the apical side (A-to-B) or basolateral side (B-to-A) and incubated at 37° C. with 5% CO2 in a humidified incubator. Samples were taken from the donor and receiver chambers at 120 minutes. Each determination was performed in duplicate. The co-dosed lucifer yellow flux was also measured for each monolayer to ensure no damage was inflicted to the cell monolayers during the flux period. All samples were assayed by LC-MS/MS using electrospray ionization. The apparent permeability (Papp) and percent recovery were calculated as follows. […] Human Liver Microsomal Stability

Plasma stability, human = assay type: in vitro ADME; conditions: two-hour time-course
Method: as §3

Plasma stability, rat = assay type: in vitro ADME; conditions: two-hour time-course
Method: as §3

[7] = GluN2D-containing receptors, read-out: inhibition IC50 for GluN2D

T3 sequence (Q62645 28-1323, other chains not shown): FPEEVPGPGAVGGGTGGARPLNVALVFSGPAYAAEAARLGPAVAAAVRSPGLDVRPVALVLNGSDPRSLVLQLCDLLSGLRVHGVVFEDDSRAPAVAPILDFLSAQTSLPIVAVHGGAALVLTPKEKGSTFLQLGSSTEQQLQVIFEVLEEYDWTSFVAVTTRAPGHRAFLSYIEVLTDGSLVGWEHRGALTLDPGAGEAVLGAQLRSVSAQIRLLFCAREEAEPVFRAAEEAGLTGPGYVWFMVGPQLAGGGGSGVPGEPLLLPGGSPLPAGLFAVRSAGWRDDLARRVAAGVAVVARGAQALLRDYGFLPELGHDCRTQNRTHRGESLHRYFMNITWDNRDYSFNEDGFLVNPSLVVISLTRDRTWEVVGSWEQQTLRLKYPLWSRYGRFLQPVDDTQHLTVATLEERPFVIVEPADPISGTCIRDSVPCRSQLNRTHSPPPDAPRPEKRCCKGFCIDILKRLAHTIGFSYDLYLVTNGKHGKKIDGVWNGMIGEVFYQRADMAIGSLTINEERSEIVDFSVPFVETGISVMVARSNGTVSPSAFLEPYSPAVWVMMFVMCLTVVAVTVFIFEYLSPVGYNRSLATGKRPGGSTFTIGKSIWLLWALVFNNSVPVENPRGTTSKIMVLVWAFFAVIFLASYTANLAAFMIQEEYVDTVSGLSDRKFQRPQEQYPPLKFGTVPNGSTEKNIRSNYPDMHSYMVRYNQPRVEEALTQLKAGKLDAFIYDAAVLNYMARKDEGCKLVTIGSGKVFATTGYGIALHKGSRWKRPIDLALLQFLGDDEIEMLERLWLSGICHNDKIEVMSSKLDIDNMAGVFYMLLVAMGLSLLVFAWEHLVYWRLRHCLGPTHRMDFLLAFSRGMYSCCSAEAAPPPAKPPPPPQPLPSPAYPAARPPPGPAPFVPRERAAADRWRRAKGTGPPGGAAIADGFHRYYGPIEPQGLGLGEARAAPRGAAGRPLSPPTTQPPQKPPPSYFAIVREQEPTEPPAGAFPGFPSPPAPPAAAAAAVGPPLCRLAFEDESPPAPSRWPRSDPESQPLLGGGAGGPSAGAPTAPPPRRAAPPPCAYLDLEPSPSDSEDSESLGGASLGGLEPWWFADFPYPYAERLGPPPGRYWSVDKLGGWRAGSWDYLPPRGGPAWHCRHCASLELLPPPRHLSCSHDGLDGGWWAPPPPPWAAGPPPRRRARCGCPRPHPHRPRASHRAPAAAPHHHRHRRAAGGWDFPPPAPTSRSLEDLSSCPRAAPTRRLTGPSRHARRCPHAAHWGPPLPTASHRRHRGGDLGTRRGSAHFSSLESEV
T1 sequence (Q62645 28-1323, other chains not shown): as above
T2 sequence (Q00961 20-1237, other chains not shown): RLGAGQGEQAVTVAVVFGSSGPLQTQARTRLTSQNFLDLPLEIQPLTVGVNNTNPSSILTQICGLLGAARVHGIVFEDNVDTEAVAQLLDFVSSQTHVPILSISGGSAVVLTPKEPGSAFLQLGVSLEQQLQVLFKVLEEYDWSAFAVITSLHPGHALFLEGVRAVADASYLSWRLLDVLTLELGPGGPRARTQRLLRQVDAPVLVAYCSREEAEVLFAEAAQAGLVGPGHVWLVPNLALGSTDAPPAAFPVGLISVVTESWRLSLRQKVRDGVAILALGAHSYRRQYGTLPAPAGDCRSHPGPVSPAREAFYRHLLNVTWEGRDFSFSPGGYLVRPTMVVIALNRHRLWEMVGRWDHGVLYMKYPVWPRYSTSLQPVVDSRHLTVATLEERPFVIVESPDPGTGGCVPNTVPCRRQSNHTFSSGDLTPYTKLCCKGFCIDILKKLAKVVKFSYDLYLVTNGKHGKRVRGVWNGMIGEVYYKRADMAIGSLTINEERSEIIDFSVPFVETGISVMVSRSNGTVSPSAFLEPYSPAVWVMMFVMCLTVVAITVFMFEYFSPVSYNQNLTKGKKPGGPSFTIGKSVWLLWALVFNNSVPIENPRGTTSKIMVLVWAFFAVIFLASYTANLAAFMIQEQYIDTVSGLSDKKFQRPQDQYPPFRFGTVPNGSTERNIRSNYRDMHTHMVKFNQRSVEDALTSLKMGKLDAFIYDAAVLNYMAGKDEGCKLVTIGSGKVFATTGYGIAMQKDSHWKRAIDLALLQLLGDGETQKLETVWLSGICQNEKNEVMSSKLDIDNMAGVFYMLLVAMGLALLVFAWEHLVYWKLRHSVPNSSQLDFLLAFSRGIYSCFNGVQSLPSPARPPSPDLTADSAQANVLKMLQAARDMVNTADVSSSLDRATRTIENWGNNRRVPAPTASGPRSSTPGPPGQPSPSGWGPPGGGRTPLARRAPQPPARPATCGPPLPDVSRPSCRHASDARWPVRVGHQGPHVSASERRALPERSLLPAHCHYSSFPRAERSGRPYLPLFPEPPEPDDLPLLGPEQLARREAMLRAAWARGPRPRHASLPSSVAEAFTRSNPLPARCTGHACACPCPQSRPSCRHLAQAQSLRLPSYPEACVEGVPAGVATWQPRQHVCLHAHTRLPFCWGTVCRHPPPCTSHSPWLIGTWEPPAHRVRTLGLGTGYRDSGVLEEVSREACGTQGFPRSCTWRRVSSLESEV
T4 sequence (Q00961 20-1237, other chains not shown): as above

- IC50 [1]: 600 nM
- IC50 [2]: 1400 nM
Structure (SMILES): O=C(CC(F)(F)CO)N1N=C(c2c(-c3ccc(Cl)cc3)c3ccccc3[nH]c2=O)C[C@H]1c1ccc(Cl)cc1 [(S)-4-(4-chlorophenyl)-3-(5-(4-chlorophenyl)-1-(3,3-difluoro-4-hydroxybutanoyl)-4,5-dihydro-1H-pyrazol-3-yl)quinolin-2(1H)-one]

- IC50 ([4]; subunit inferred, GluN2D by context of b229, read-out: IC50 (potency, FIG. 10)): 32000 nM
Structure (SMILES): COC(=O)c1ccc(C2CC(c3c(-c4ccccc4)c4cc(Cl)ccc4[nH]c3=O)=NN2C(=O)CCC(=O)O)cc1 (centres unmarked) [Compound 997-6, 4-(3-(6-Chloro-2-oxo-4-phenyl-1,2-dihydroquinolin-3-yl)-5-(4-(methoxycarbonyl)phenyl)-4,5-dihydro-1H-pyrazol-1-yl)-4-oxobutanoic acid]

- selectivity for GluN2D-containing over GluN2A-containing receptors [4]: 33 fold
- selectivity for GluN2D-containing over GluN2B-containing receptors [4]: 67 fold
- IC50 [4, 7]: 390 nM
- IC50 [5]: 710 nM
Structure (SMILES): O=C(O)CCC(=O)N1N=C(c2c(-c3ccc(Br)cc3)c3ccccc3[nH]c2=O)CC1c1ccc(Br)cc1 (centres unmarked) [Compound 997-7, 4-(5-(4-Bromophenyl)-3-(4-(4-bromophenyl)-2-oxo-1,2-dihydroquinolin-3-yl)-4,5-dihydro-1H-pyrazol-1-yl)-4-oxobutanoic acid]

- IC50 [4, 7]: 4100 nM
Structure (SMILES): O=C(O)CCC(=O)N1N=C(c2c(-c3ccccc3)c3cc(Cl)ccc3[nH]c2=O)CC1c1ccc(C(F)(F)F)cc1 (centres unmarked) [Compound 997-8, 4-(3-(6-Chloro-2-oxo-4-phenyl-1,2-dihydroquinolin-3-yl)-5-(4-(trifluoromethyl)phenyl)-4,5-dihydro-1H-pyrazol-1-yl)-4-oxobutanoic acid]

- potency at GluN2D-containing receptors, in words [4]: submicromolar
Structure (SMILES): O=C(O)CCC(=O)N1N=C(c2c(-c3ccc(F)c(Cl)c3)c3ccccc3[nH]c2=O)CC1c1ccc(Cl)cc1 (centres unmarked) [Compound 997-34, 4-(3-(4-(3-Chloro-4-fluorophenyl)-2-oxo-1,2-dihydroquinolin-3-yl)-5-(4-chlorophenyl)-4,5-dihydro-1H-pyrazol-1-yl)-4-oxobutanoic acid]

- potency at GluN2D-containing receptors, in words [4]: submicromolar
Structure (SMILES): O=C(O)CCC(=O)N1N=C(c2c(-c3cc(F)cc(F)c3)c3ccccc3[nH]c2=O)CC1c1ccc(Cl)cc1 (centres unmarked) [Compound 997-35, 4-(5-(4-Chlorophenyl)-3-(4-(3,5-difluorophenyl)-2-oxo-1,2-dihydroquinolin-3-yl)-4,5-dihydro-1H-pyrazol-1-yl)-4-oxobutanoic acid]

- potency at GluN2D-containing receptors, in words [4]: submicromolar
Structure (SMILES): O=C(O)CCC(=O)N1N=C(c2c(-c3cc(Cl)cc(Cl)c3)c3ccccc3[nH]c2=O)CC1c1ccc(Cl)cc1 (centres unmarked) [Compound 997-37]

- potency at GluN2D-containing receptors, in words [4]: submicromolar
Structure (SMILES): O=C(O)CCC(=O)N1N=C(c2c(-c3ccc(Cl)c(Cl)c3)c3ccccc3[nH]c2=O)CC1c1ccc(Cl)cc1 (centres unmarked) [Compound 997-41, 4-(5-(4-Chlorophenyl)-3-(4-(3,4-dichlorophenyl)-2-oxo-1,2-dihydroquinolin-3-yl)-4,5-dihydro-1H-pyrazol-1-yl)-4-oxobutanoic acid]

- potency at GluN2D-containing receptors, in words [4]: submicromolar
Structure (SMILES): O=C(O)CCC(=O)N1N=C(c2c(-c3ccc(F)c(F)c3)c3ccccc3[nH]c2=O)CC1c1ccc(Cl)cc1 (centres unmarked) [Compound 997-42, 4-(5-(4-Chlorophenyl)-3-(4-(3,4-difluorophenyl)-2-oxo-1,2-dihydroquinolin-3-yl)-4,5-dihydro-1H-pyrazol-1-yl)-4-oxobutanoic acid]

- plasma stability (Plasma stability, mouse): minimal degradation
- Papp A-B ([6]; MDR1-MDCK, 5 μM, 120 minutes): 2.46 ×10⁻⁶ cm/s
- BBB penetration classification [6]: low BBB potential
- plasma stability (Plasma stability, human): minimal degradation
- plasma stability (Plasma stability, rat): minimal degradation
Structure (SMILES): O=C(CCCO)N1N=C(c2c(-c3ccc(Cl)cc3)c3ccccc3[nH]c2=O)CC1c1ccc(Cl)cc1 (centres unmarked) [Compound 997-57, 4-(4-Chlorophenyl)-3-(5-(4-chlorophenyl)-1-(4-hydroxybutanoyl)-4,5-dihydro-1H-pyrazol-3-yl)quinolin-2(1H)-one]
- selectivity over GluN2A-containing receptors ([3]; activity at GluN2C- and GluN2D-containing receptors versus GluN2A): 90 fold

- Papp A-B ([6]; MDR1-MDCK, 5 μM, 120 minutes): 3.88 ×10⁻⁶ cm/s
- Papp B-A ([6]; MDR1-MDCK, 5 μM, 120 minutes): 9.52 ×10⁻⁶ cm/s
- BBB penetration classification [6]: highly brain penetrable
Structure (SMILES): O=C(CCCF)N1N=C(c2c(-c3ccc(Cl)cc3)c3ccccc3[nH]c2=O)CC1c1ccc(Cl)cc1 (centres unmarked) [Compound 997-64, 4-(4-Chlorophenyl)-3-(5-(4-chlorophenyl)-1-(4-fluorobutanoyl)-4,5-dihydro-1H-pyrazol-3-yl)quinolin-2(1H)-one]

Second part, the molecule before the results:

Structure (SMILES): O=C(CC(F)(F)CO)N1N=C(c2c(-c3ccc(Cl)cc3)c3ccccc3[nH]c2=O)CC1c1ccc(Cl)cc1 (centres unmarked) [4-(4-chlorophenyl)-3-(5-(4-chlorophenyl)-1-(3,3-difluoro-4-hydroxybutanoyl)-4,5-dihydro-1H-pyrazol-3-yl)quinolin-2(1H)-one]
- IC50 [1]: 800 nM
- IC50 [2]: 1600 nM

Structure (SMILES): O=C(O)CCC(=O)N1N=C(c2c(-c3ccncc3)c3ccccc3[nH]c2=O)CC1c1ccc(Cl)cc1 (centres unmarked) [4-(5-(4-chlorophenyl)-3-(2-oxo-4-(pyridin-4-yl)-1,2-dihydroquinolin-3-yl)-4,5-dihydro-1H-pyrazol-1-yl)-4-oxobutanoic acid]
- IC50 [1]: 8100 nM
- IC50 [2]: 15000 nM

Structure (SMILES): O=C(CC(F)(F)C(=O)O)N1N=C(c2c(-c3cccc(F)c3)c3ccccc3[nH]c2=O)CC1c1ccc(Cl)cc1 (centres unmarked) [4-(5-(4-chlorophenyl)-3-(4-(3-fluorophenyl)-2-oxo-1,2-dihydroquinolin-3-yl)-4,5-dihydro-1H-pyrazol-1-yl)-2,2-difluoro-4-oxobutanoic acid]
- IC50 [1]: 500 nM
- IC50 [2]: 600 nM

Structure (SMILES): O=C(O)CC(F)(F)C(=O)N1N=C(c2c(-c3ccc(Cl)cc3)c3ccccc3[nH]c2=O)CC1c1ccc(Cl)cc1 (centres unmarked) [4-(5-(4-chlorophenyl)-3-(4-(4-chlorophenyl)-2-oxo-1,2-dihydroquinolin-3-yl)-4,5-dihydro-1H-pyrazol-1-yl)-3,3-difluoro-4-oxobutanoic acid]
- IC50 [1]: 50 nM
- IC50 [2]: 390 nM

Structure (SMILES): O=C(CC(F)(F)CO)N1N=C(c2c(-c3ccc(Cl)cc3)c3ccccc3[nH]c2=O)C[C@@H]1c1ccc(Cl)cc1 [(R)-4-(4-chlorophenyl)-3-(5-(4-chlorophenyl)-1-(3,3-difluoro-4-hydroxybutanoyl)-4,5-dihydro-1H-pyrazol-3-yl)quinolin-2(1H)-one]
- IC50 [1]: 3600 nM
- IC50 [2]: 8500 nM

Structure (SMILES): O=C(O)CCC(=O)N1N=C(c2c(-c3ccccc3)c3cc(Cl)ccc3[nH]c2=O)CC1c1ccc(C(=O)O)cc1 (centres unmarked) [Compound 997-5, 4-(1-(3-Carboxypropanoyl)-3-(6-chloro-2-oxo-4-phenyl-1,2-dihydroquinolin-3-yl)-4,5-dihydro-1H-pyrazol-5-yl)benzoic acid]
- activity at NMDA receptors, in words [3]: no activity

Structure (SMILES): COC(=O)CCC(=O)N1N=C(c2c(-c3ccccc3)c3cc(Cl)ccc3[nH]c2=O)CC1c1ccc(Br)cc1 (centres unmarked) [Compound 997-11, Methyl 4-(5-(4-bromophenyl)-3-(6-chloro-2-oxo-4-phenyl-1,2-dihydroquinolin-3-yl)-4,5-dihydro-1H-pyrazol-1-yl)-4-oxobutanoate]
- activity at NMDA receptors, in words [3]: inactive

Structure (SMILES): COC(=O)/C=C/C(=O)N1N=C(c2c(-c3ccc(Br)cc3)c3ccccc3[nH]c2=O)CC1c1ccc(Cl)cc1 (centres unmarked) [Compound 997-31, (E)-Methyl 4-(3-(4-(4-bromophenyl)-2-oxo-1,2-dihydroquinolin-3-yl)-5-(4-chlorophenyl)-4,5-dihydro-1H-pyrazol-1-yl)-4-oxobut-2-enoate]
- activity at NMDA receptors, in words [3]: inactive
